Test results: US20230114728A1 (Venatorx Pharmaceuticals, Inc., priority 2019, published 2023)
≈ marks a conversion by molar mass, not a printed value.

Key:
Type in all cases: cell-based
[1] = system: K. pneumoniae 848844 producing SHV-11 and KPC-2; test: Broth microdilution MIC in CAMHB; details: Klebsiella pneumoniae, read-out: Minimum Inhibitory Concentration, K. pneumoniae 848844
In short: (§1)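 Per CLSI broth microdilution, colonies were grown 3-5 h at 37° C in cation-adjusted Mueller Hinton broth, then diluted to a starting inoculum of 2-8×10^5 CFU/mL against 2-fold serial compound dilutions. Plates were incubated 16-20 h at 37° C, and MIC was read visually as the lowest concentration with no growth.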

P. aeruginosa ATCC 35151 = test: Broth microdilution MIC in CAMHB; details: Pseudomonas aeruginosa, ATCC35151; MHB; hyper-permeable strain; read-out: Minimum Inhibitory Concentration, P. aeruginosa ATCC 35151
In short: as §1

[2] = system: P. aeruginosa (ΔmexAB-oprM); test: Broth microdilution MIC in CAMHB; details: Pseudomonas aeruginosa, read-out: Minimum Inhibitory Concentration, P. aeruginosa ΔmexAB-OprM
In short: as §1

A. baumannii ATCC 19606 = test: Broth microdilution MIC in CAMHB; details: Acinetobacter baumannii, ATCC19606; MHB; read-out: Minimum Inhibitory Concentration, A. baumannii ATCC 19606
In short: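 CLSI microdilution; CAMHB; inoculum 2-8×10^5 CFU/mL from 3-5 h 37° C culture; 2-fold compound series; 16-20 h, 37° C; MIC = lowest well without visible growth.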

[3] = system: K. pneumoniae SI-117 producing VIM-1; test: Broth microdilution MIC in CAMHB; details: Klebsiella pneumoniae, read-out: Minimum Inhibitory Concentration, K. pneumoniae SI-117
In short: as §1

P. aeruginosa ATCC 27853 = test: Broth microdilution MIC in CAMHB; details: Pseudomonas aeruginosa, ATCC27853; MHB; read-out: Minimum Inhibitory Concentration, P. aeruginosa ATCC 27853
In short: as §1

[4] = system: K. pneumoniae UMM producing SHV-5 and KPC-2; test: Broth microdilution MIC in CAMHB; details: Klebsiella pneumoniae, read-out: Minimum Inhibitory Concentration, K. pneumoniae UMM
In short: as §1

E. coli D22 = test: Broth microdilution MIC in CAMHB; details: Escherichia coli; E. coli D22 (hyper-permeable); MHB; read-out: Minimum Inhibitory Concentration, E. coli D22
In short: as §1

E. coli 901C = test: Broth microdilution MIC in CAMHB; details: Escherichia coli; E. coli 901C (hyper-permeable); MHB; read-out: Minimum Inhibitory Concentration, E. coli 901C
In short: as §1

E. coli ATCC 25922 = test: Broth microdilution MIC in CAMHB; details: Escherichia coli, ATCC25922; E. coli ATCC 25922; MHB; read-out: Minimum Inhibitory Concentration, E. coli 25922
In short: as §1

E. coli AG100A = test: Broth microdilution MIC in CAMHB; details: Escherichia coli, read-out: Minimum Inhibitory Concentration, E. coli AG100A
In short: as §1

E. coli AG100 = test: Broth microdilution MIC in CAMHB; details: Escherichia coli; E. coli AG100 (wild-type parent); MHB; read-out: Minimum Inhibitory Concentration, E. coli AG100
In short: as §1

N. gonorrhoeae WHO Z = test: Liquid broth MIC in Fastidious broth; details: Neisseria gonorrhoeae, read-out: Minimum Inhibitory Concentration, N. gonorrhoeae WHO Z
In short: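 MIC = lowest concentration giving <10% growth relative to untreated wells, scored by eye after ~24 h at 36 °C, 5% CO2. Strains carry mosaic PBP2; inoculum 5×10^5 CFU/mL in Fastidious broth with 2-fold serial compound dilutions.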

NCCN1CCN(C(=O)N[C@@H](C(=O)N[C@H]2Cc3cccc(C(=O)O)c3OB2O)c2cc(Cl)c(O)cc2Cl)C(=O)C1=O [Example 90, (R)-3-((R)-2-(4-(2-aminoethyl)-2,3-dioxopiperazine-1-carboxamido)-2-(2,5-dichloro-4-hydroxyphenyl)acetamido)-2-hydroxy-3,4-dihydro-2H-benzo[e][1,2]oxaborinine-8-carboxylic acid]
MIC [1]: > 128 µg/mL
MIC (P. aeruginosa ATCC 35151): 0.5 to 1 µg/mL (≈ 0.822 to 1.64 µM)
MIC [2]: > 128 µg/mL
MIC (A. baumannii ATCC 19606): > 128 µg/mL
MIC [3]: > 128 µg/mL
MIC (P. aeruginosa ATCC 27853): > 128 µg/mL
MIC [4]: > 128 µg/mL
MIC (E. coli D22): 8 to 16 µg/mL (≈ 13.2 to 26.3 µM)
MIC (E. coli 901C): 0.5 to 1 µg/mL (≈ 0.822 to 1.64 µM)
MIC (E. coli ATCC 25922): > 128 µg/mL
MIC (E. coli AG100A): 32 to 64 µg/mL (≈ 52.6 to 105 µM)
MIC (E. coli AG100): 32 to 64 µg/mL (≈ 52.6 to 105 µM)
MIC (N. gonorrhoeae WHO Z): > 64 µg/mL

CCN1CCN(C(=O)NC(C(=O)N[C@H]2Cc3cccc(C(=O)O)c3OB2O)c2ccc(C(=O)O)c(OC)c2)C(=O)C1=O (stereo partly drawn) [Example 48, (3R)-3-(2-(4-carboxy-3-methoxyphenyl)-2-(4-ethyl-2,3-dioxopiperazine-1-carboxamido)acetamido)-2-hydroxy-3,4-dihydro-2H-benzo[e][1,2]oxaborinine-8-carboxylic acid]
MIC [1]: > 128 µg/mL
MIC (P. aeruginosa ATCC 35151): 0.5 to 1 µg/mL (≈ 0.859 to 1.72 µM)
MIC [2]: 8 to 16 µg/mL (≈ 13.7 to 27.5 µM)
MIC (A. baumannii ATCC 19606): > 128 µg/mL
MIC [3]: > 128 µg/mL
MIC (P. aeruginosa ATCC 27853): > 128 µg/mL
MIC [4]: > 128 µg/mL
MIC (E. coli D22): < 0.25 µg/mL
MIC (E. coli 901C): 2 to 4 µg/mL (≈ 3.43 to 6.87 µM)
MIC (E. coli ATCC 25922): 32 to 64 µg/mL (≈ 55 to 110 µM)
MIC (E. coli AG100A): 8 to 16 µg/mL (≈ 13.7 to 27.5 µM)
MIC (E. coli AG100): > 128 µg/mL
MIC (N. gonorrhoeae WHO Z): 1 to 2 µg/mL (≈ 1.72 to 3.43 µM)

CCN1CCN(C(=O)NC(C(=O)N[C@H]2Cc3cccc(C(=O)O)c3OB2O)c2cc(O)ccc2O)C(=O)C1=O (stereo partly drawn) [Example 77, (3R)-3-(2-(2,5-dihydroxyphenyl)-2-(4-ethyl-2,3-dioxopiperazine-1-carboxamido)acetamido)-2-hydroxy-3,4-dihydro-2H-benzo[e][1,2]oxaborinine-8-carboxylic acid]
MIC [1]: > 128 µg/mL
MIC (P. aeruginosa ATCC 35151): 8 to 16 µg/mL (≈ 14.8 to 29.6 µM)
MIC [2]: > 128 µg/mL
MIC (A. baumannii ATCC 19606): > 128 µg/mL
MIC [3]: > 128 µg/mL
MIC (P. aeruginosa ATCC 27853): > 128 µg/mL
MIC [4]: > 128 µg/mL
MIC (E. coli D22): 8 to 16 µg/mL (≈ 14.8 to 29.6 µM)
MIC (E. coli 901C): 8 to 16 µg/mL (≈ 14.8 to 29.6 µM)
MIC (E. coli ATCC 25922): > 128 µg/mL
MIC (E. coli AG100A): 32 to 64 µg/mL (≈ 59.2 to 118 µM)
MIC (E. coli AG100): > 128 µg/mL
MIC (N. gonorrhoeae WHO Z): > 64 µg/mL

CCN1CCN(C(=O)NC(C(=O)N[C@H]2Cc3cccc(C(=O)O)c3OB2O)c2cccc(O)c2)C(=O)C1=O (stereo partly drawn) [Example 68, (3R)-3-(2-(4-ethyl-2,3-dioxopiperazine-1-carboxamido)-2-(3-hydroxyphenyl)acetamido)-2-hydroxy-3,4-dihydro-2H-benzo[e][1,2]oxaborinine-8-carboxylic acid]
MIC [1]: > 128 µg/mL
MIC (P. aeruginosa ATCC 35151): 0.5 to 1 µg/mL (≈ 0.954 to 1.91 µM)
MIC [2]: 2 to 4 µg/mL (≈ 3.81 to 7.63 µM)
MIC (A. baumannii ATCC 19606): > 128 µg/mL
MIC [3]: 32 to 64 µg/mL (≈ 61 to 122 µM)
MIC (P. aeruginosa ATCC 27853): > 128 µg/mL
MIC [4]: 32 to 64 µg/mL (≈ 61 to 122 µM)
MIC (E. coli D22): 2 to 4 µg/mL (≈ 3.81 to 7.63 µM)
MIC (E. coli 901C): < 0.25 µg/mL
MIC (E. coli ATCC 25922): 32 to 64 µg/mL (≈ 61 to 122 µM)
MIC (E. coli AG100A): 2 to 4 µg/mL (≈ 3.81 to 7.63 µM)
MIC (E. coli AG100): 32 to 64 µg/mL (≈ 61 to 122 µM)
MIC (N. gonorrhoeae WHO Z): 16 to 32 µg/mL (≈ 30.5 to 61 µM)

CCN1CCN(C(=O)NC(C(=O)N[C@H]2Cc3cccc(C(=O)O)c3OB2O)c2cccc([N+](=O)[O-])c2)C(=O)C1=O (stereo partly drawn) [Example 75, (3R)-3-(2-(4-ethyl-2,3-dioxopiperazine-1-carboxamido)-2-(3-nitrophenyl)acetamido)-2-hydroxy-3,4-dihydro-2H-benzo[e][1,2]oxaborinine-8-carboxylic acid]
MIC [1]: > 128 µg/mL
MIC (P. aeruginosa ATCC 35151): 8 to 16 µg/mL (≈ 14.5 to 28.9 µM)
MIC [2]: 32 to 64 µg/mL (≈ 57.8 to 116 µM)
MIC (A. baumannii ATCC 19606): > 128 µg/mL
MIC [3]: > 128 µg/mL
MIC (P. aeruginosa ATCC 27853): > 128 µg/mL
MIC [4]: > 128 µg/mL
MIC (E. coli D22): 8 to 16 µg/mL (≈ 14.5 to 28.9 µM)
MIC (E. coli 901C): 0.5 to 1 µg/mL (≈ 0.904 to 1.81 µM)
MIC (E. coli ATCC 25922): > 128 µg/mL
MIC (E. coli AG100A): 8 to 16 µg/mL (≈ 14.5 to 28.9 µM)
MIC (E. coli AG100): > 128 µg/mL
MIC (N. gonorrhoeae WHO Z): 16 to 32 µg/mL (≈ 28.9 to 57.8 µM)

NCCN1CCN(C(=O)N[C@@H](C(=O)N[C@H]2Cc3cccc(C(=O)O)c3OB2O)c2ccc(O)cc2Cl)C(=O)C1=O (single isomer, unassigned) [Example 86]
MIC [1]: 32 to 64 µg/mL (≈ 55.8 to 112 µM)
MIC (P. aeruginosa ATCC 35151): 0.5 to 1 µg/mL (≈ 0.871 to 1.74 µM)
MIC [2]: 8 to 16 µg/mL (≈ 13.9 to 27.9 µM)
MIC (A. baumannii ATCC 19606): > 128 µg/mL
MIC [3]: 32 to 64 µg/mL (≈ 55.8 to 112 µM)
MIC (P. aeruginosa ATCC 27853): > 128 µg/mL
MIC [4]: 32 to 64 µg/mL (≈ 55.8 to 112 µM)
MIC (E. coli D22): 8 to 16 µg/mL (≈ 13.9 to 27.9 µM)
MIC (E. coli 901C): 2 to 4 µg/mL (≈ 3.49 to 6.97 µM)
MIC (E. coli ATCC 25922): 32 to 64 µg/mL (≈ 55.8 to 112 µM)
MIC (E. coli AG100A): 2 to 4 µg/mL (≈ 3.49 to 6.97 µM)
MIC (E. coli AG100): 32 to 64 µg/mL (≈ 55.8 to 112 µM)
MIC (N. gonorrhoeae WHO Z): > 64 µg/mL
